Patent US10254278B2, “Method and system for detection of natural high intensity sweeteners that contain hydroxyl groups” (PureCircle Sdn Bhd, priority 2011, dated 2019)
In brackets after ≈: the same amount, converted by molar mass. Each block holds one compound with its values, some of them ahead of it.

Test system: antiserum KLH-R3 (I) (polyclonal anti-Rebaudioside D antibody)
Test: Competitive indirect ELISA for Rebaudioside D (conjugate-coated format, antiserum KLH-R3 (I) / BSA-R3 coating conjugate)
Assay type: binding, rabbit
Conditions: for cross-reactivity CR = (IC50 Rebaudioside D/IC50 compound)×100: developed immunoassay for Reb D
Procedure: The hapten R1 (rebaudioside D) (5 mg suspended in 0.5 mL of 10 mM PBS) and KLH-conjugates or BSA-R (n=2-5), (0.5 mL of conjugate at a concentration of […], 10 mM PBS) were injected intramuscularly into two New Zealand California white rabbits, with 0.5 mL of complete Freund's adjuvant in the first immunization, and 0.5 mL of incomplete Freund's adjuvant in the following. Immunizations were performed every 21 days, and 10 days after each immunization bleedings were carried out to know the title and properties of serum from each animal. After five cycles of immunization, blood was obtained by bleeding, leaving it to coagulate overnight at 4° C. Subsequently, after adding sodium azide (0.02%) serum was separated by centrifugation and stored at −80° C.
First, the avidity of the sera obtained against different coating conjugates was determined by non-competitive indirect ELISA using different antisera (serial dilutions from 1/1000 to 1/64000) and concentrations of the coating conjugates (0.001 to 1.0 mg/L). Similarly, the avidity to the enzyme-tracer was determined by a direct non-competitive ELISA using several dilutions of the tracer (serial dilutions from 0.001 to 1.0 mg/L) and serum (from 1/500 to 1/512000).
The titres obtained from conjugate-coated format indirect format (ELISA plates coated with protein-hapten) were higher than those obtained for direct format (ELISA plates coated with serum), choosing as optimal concentrations of coating conjugates and dilution of serum, those that produced absorbance values around 0.8-1.2 units in absence of analyte (Rebaudioside D), to carry out competitive tests.
Flat-bottomed polystyrene ELISA plates were coated overnight at 4° C. with 100 μL/well of the appropriate coating conjugate solution in CB. The following day, plates were washed six times with 15 mmol/L PBS-T pH 8.5, and then 50 μL of the serum dilution and 50 μL of Reb D in PBS-T were added and incubated at room temperature during 1 h. After washing, an incubation step (1 h) with 100 μL/well GAR-HRP (diluted 1/2000 in PBS-T) was accomplished, and plates washed again. Finally, 100 μL/well of substrate solution (2 mg/mL OPD and 0.012% H2O2 in 25 mmol/L sodium citrate and 62 mmol/L sodium phosphate, pH 5.5) was added. The enzymatic reaction was stopped after 10 min by addition of 2.5 mol/L H2SO4 (50 μL/well), and the absorbance was read in a dual-wavelength mode (490, 650 nm).
The optimization was performed for the most sensitive assay (antiserum KLH-R3/BSA-R3 coating conjugate) using Reb D as competitor analyte.
The influence of several experimental parameters such as ionic strength, pH, surfactant concentration and time of competition on assay characteristics was examined in order to improve the immunoassay performance (sensitivity, maximum absorbance, working or dynamic range and detection limit). Criteria used to evaluate the assay performances were sensitivity (IC50), maximum absorbance (A0), dynamic range (DR, established between the Reb D concentrations producing 20% and 80% colour inhibition) and limit of detection (LD, estimated at 10% inhibitory concentration).
Assay selectivity was evaluated by determining the cross-reactivity with two sugars derived from Stevia rebaudiana, such as rebaudioside A and stevioside. The cross reactivity values were calculated according to the following equation: CR=(IC50 [mg/L] Rebaudioside D/IC50 [mg/L] compound)×100.

[1] = cross-reactivity study, related compound as competitor

IC50 [1]: 418,605 μg/L
cross-reactivity CR = (IC50 Rebaudioside D/IC50 compound)×100: 8.6×10^−5%
SMILES: C=C1C[C@@]23CC[C@H]4[C@@](C)(CCC[C@@]4(C)C(=O)O[C@@H]4O[C@H](CO)[C@@H](O)[C@H](O)[C@H]4O)[C@@H]2CC[C@]1(O[C@@H]1O[C@H](CO)[C@@H](O)[C@H](O)[C@H]1O[C@@H]1O[C@H](CO)[C@@H](O)[C@H](O)[C@H]1O)C3 [Stevioside]

IC50 [1]: 225 µg/L (≈ 233 nM)
cross-reactivity CR = (IC50 Rebaudioside D/IC50 compound)×100: 0.16%
SMILES: C=C1C[C@@]23CC[C@H]4[C@@](C)(CCC[C@@]4(C)C(=O)O[C@@H]4O[C@H](CO)[C@@H](O)[C@H](O)[C@H]4O)[C@@H]2CC[C@]1(O[C@@H]1O[C@H](CO)[C@@H](O)[C@H](O[C@@H]2O[C@H](CO)[C@@H](O)[C@H](O)[C@H]2O)[C@H]1O[C@@H]1O[C@H](CO)[C@@H](O)[C@H](O)[C@H]1O)C3 [Rebaudioside A]

IC50 (PBS 5 mmol/L, 0.05% Tween 20, pH 7.5): 1.53 ± 0.41 µg/L (≈ 1.35 nM)
IC50 (PBS 10 mmol/L, 0.05% Tween 20, pH 7.5): 1.30 ± 0.35 µg/L (≈ 1.15 nM)
IC50 (PBS 15 mmol/L, 0.05% Tween 20, pH 7.5): 0.77 ± 0.24 µg/L (≈ 0.682 nM)
IC50 (PBS 20 mmol/L, 0.05% Tween 20, pH 7.5): 1.02 ± 0.28 µg/L (≈ 0.903 nM)
IC50 (PBS 30 mmol/L, 0.05% Tween 20, pH 7.5): 1.70 ± 0.45 µg/L (≈ 1.51 nM)
IC50 (Tween 20 0.000%, 15 mM PBS, pH 8.5): 0.68 ± 0.26 µg/L (≈ 0.602 nM)
IC50 (Tween 20 0.010%, 15 mM PBS, pH 8.5): 0.56 ± 0.23 µg/L (≈ 0.496 nM)
IC50 (Tween 20 0.025%, 15 mM PBS, pH 8.5): 0.58 ± 0.19 µg/L (≈ 0.514 nM)
IC50 (Tween 20 0.050%, 15 mM PBS, pH 8.5): 0.49 ± 0.15 µg/L (≈ 0.434 nM)
IC50 (Tween 20 0.100%, 15 mM PBS, pH 8.5): 0.39 ± 0.08 µg/L (≈ 0.345 nM)
IC50 (optimal conditions (15 mM PBS, pH 8.5, 0.25% Tween 20), set of 20 calibration curves): 0.36 ± 0.05 µg/L (≈ 0.319 nM)
IC50 (pH 4.5, 15 mM PBS, 0.05% Tween 20): 0.63 ± 0.21 µg/L (≈ 0.558 nM)
IC50 (pH 5.5, 15 mM PBS, 0.05% Tween 20): 0.86 ± 0.23 µg/L (≈ 0.762 nM)
IC50 (pH 6.5, 15 mM PBS, 0.05% Tween 20): 0.91 ± 0.27 µg/L (≈ 0.806 nM)
IC50 (pH 7.5, 15 mM PBS, 0.05% Tween 20): 0.77 ± 0.24 µg/L (≈ 0.682 nM)
IC50 (pH 8.5, 15 mM PBS, 0.05% Tween 20): 0.49 ± 0.15 µg/L (≈ 0.434 nM)
IC50 (pH 9.5, 15 mM PBS, 0.05% Tween 20): 0.50 ± 0.19 µg/L (≈ 0.443 nM)
IC50 (serum screening, before optimization, pair KLH-R3 (I)/BSA-R3 (1:2000/0.03 mg/L)): 1.30 µg/L (≈ 1.15 nM)
SMILES: C=C1C[C@@]23CC[C@H]4[C@@](C)(CCC[C@@]4(C)C(=O)O[C@@H]4O[C@H](CO)[C@@H](O)[C@H](O)[C@H]4O[C@@H]4O[C@H](CO)[C@@H](O)[C@H](O)[C@H]4O)[C@@H]2CC[C@]1(O[C@@H]1O[C@H](CO)[C@@H](O)[C@H](O[C@@H]2O[C@H](CO)[C@@H](O)[C@H](O)[C@H]2O)[C@H]1O[C@@H]1O[C@H](CO)[C@@H](O)[C@H](O)[C@H]1O)C3 [Rebaudioside D]
detection limit (LD, estimated at 10% inhibitory concentration) (optimal conditions, 20 calibration curves): 0.01 µg/L
